Test results reported in patent publication US11673853B2, “Small molecule AMPK activators” (University of Pittsburgh—Of the Commonwealth System of …, priority 2016, dated 2023).

Columns and labels:
pAMPK = pAMPK immunoblotting in Beas2B cells (Table 1); assay type: cell-based; settings: Homo sapiens, BEAS-2B, DMEM media without glucose, compounds 18 h
Description: Additional compounds in Table 1 were or can be prepared according to the above-described Examples. Human bronchial epithelial cells (Beas2B) were seeded in 6-well plates for 18 h. Cells were then exposed to DMEM media without glucose and compounds at various concentrations for an additional 18 h before being collected for immunoblotting.

mice = experiment: LPS pneumonia model; assay type: in vivo; settings: 2 or 10 mg/kg i.p., LPS 3 mg/kg i.t., 18 h
Description: FIG. 8. Compound 12 (2 or 10 mg/kg) was administered to mice though an i.p. injection, and mice were immediately challenged with LPS (E. coli, 3 mg/kg, i.t.) or without (control, CON) for an additional 18 h. Mice were then euthanized and lungs were lavaged with saline, harvested, and then homogenized. Lavage protein (H), cell counts (I) and cytokine secretions (E-G) were measured. Lungs were homogenized before being assayed by immunoblotting. The data are representative of data from n=5-6 mice/group, *P<0.05 versus vehicle. Serum cytokines (A-C) and peritoneal bacteria (D) were also measured.
FIG. 11. (A-B.) C57BL6 mice were administered i.p. vehicle, 0.08, 0.4, 2 or 10 mg/kg of Compound 23. After 10 min, mice were given LPS (E. coli, 3 mg/kg) through an i.p. injection and, after 2 h, mice were euthanized and blood collected for IL-6 and TNFα measurements. Shown in panels (A-B.) are the cytokine levels as a function of drug dose. The data represent n=3 mice/group at each dose. (C-G) Compound 23 (2 or 10 mg/kg) was administered to mice though an i.p. injection, and mice were immediately challenged with LPS (E. coli, 3 mg/kg, i.t.) or without (control, CON) for an additional 18 h. Mice were then euthanized and lungs were lavaged with saline, harvested, and then homogenized. Lavage protein (C), cell counts (D) and cytokine secretions (E-G) were measured. The data are representative of data from n=5 mice/group, *P<0.05 versus vehicle.
Compound 12 was tested in two pneumonia model using Pseudomonas or LPS endotoxin.
Compound 23 was tested in a sepsis model. Compound 23 was administered to mice at various doses through an i.p. injection, and 10 min later, mice were given LPS (E. coli; 3 mg/kg i.p.). After 2 h, mice were euthanized and blood was collected and assayed for IL-6 and TNFα cytokine levels. […] Finally, Compound 23 was tested in a pneumonia model using LPS endotoxin. […] Thus Compound 23 protects the lung against LPS induced lung injury.

PBMC cells = experiment: LPS-induced cytokine release from PBMCs (ELISA); assay type: cell-based
Description: (§1) FIG. 4. (A) Beas2b cells were cultured in DMEM 2% media with glucose for 24 h before switching to glucose-free media. Cells were then exposed to Compound 12 in a dose dependent manner for 18 h before being collected for immunoblotting. (B) Beas2b cells were cultured in DMEM 2% media with glucose for 24 h before Compound 12 treatment in a dose dependent manner. After 18 h, cells were then collected for immunoblotting. (C) Beas2b cells were cultured in DMEM 2% media with glucose for 24 h before switching to glucose-free media. Cells were then exposed to Compound 12 for 18 h before being collected for mRNA analysis. (D) 50K PBMC cells were cultured in 96 well plates before being exposed to Compound 12 for 4 h. Cells were then treated with LPS (10 ng/ml) for additional 2 h. Media were then collected and IL-1b concentration was determined by ELISA.
FIG. 10. (A) 50K PBMC cells were cultured in 96 well plates before being exposed to Compound 23 for 18 h. Cells were then treated with LPS (10 ng/ml) for additional 4 h. Media were then collected and TNF and IL-1b concentration were determined by ELISA. (B) PBMC cells (1 mL at 1.0×10^6/ml) were treated with Compound 23 (5 μM) for 18 h. Cells were then treated with 100 ng/ml LPS for 4 h. Cytokine release was monitored by the human cytokine array (R&D systems). The results from a cytokine array dot blot were quantitated and graphed.
A SAR study was performed by constructing analogs of Compound 1. […] Compound 12 was further tested in PBMCs. Briefly, PBMCs were treated with Compound 12 at various concentrations for 4 h before exposure to LPS (10 ng/ml) for 2 h.
Compound 23 was tested in in vitro inflammatory assays. 50K PBMC cells were cultured in 96 well plates before being exposed to Compound 23 for 18 h. Cells were then treated with LPS (10 ng/ml) for additional 4 h. Media were then collected and assayed for TNF and IL-1b. […] Cytokine arrays were used to profile which cyotokine/chemokines were regulated by Compound 23.

phospho-AMPK = phospho-AMPK / p-ACC immunoblotting in Beas2B cells (in vitro studies); assay type: cell-based, Human
Description: FIG. 3. (A) Beas2b cells were cultured in DMEM 2% media with glucose for 24 h before switching to glucose-free media. Cells were then exposed to either DMSO or Compound 1 (2 μM) in a time course before being collected for immunoblotting. (B) Beas2B cells were exposed to Compound 1 for 18 h at various doses before being collected for immunoblotting. (C) Beas2b cells were cultured in DMEM 2% media with glucose for 24 h before switching to glucose-free media. Cells were then exposed to AICAR at various doses with or without Compound 1 co-treatment. After 18 h, cells were collected before being assayed by immunoblotting.
as §1
FIG. 9. (A) Beas2b cells were cultured in DMEM 2% media with glucose for 24 h before switching to glucose-free media. Cells were then exposed to Compound 23 or metformin in a dose dependent manner for 18 h before being collected for immunoblotting. (B) Beas2b cells were cultured in DMEM 2% media with glucose for 24 h before switching to glucose-free media and treated with Compound 12 or Compound 23 in a dose dependent manner. After 6 h, cells were then collected for immunoblotting. (C) Beas2b cells were cultured in DMEM 2% media with glucose for 24 h before switching to glucose-free media and treated with Compound 12 or Compound 23 in a dose dependent manner. After 18 h, cells were then collected for immunoblotting. (D) Beas2b cells were transfected with AMPK phospho mimic T172D or phospho dead T172A mutant for 24 h. Cells were then switched to glucose-free media and exposed to Compound 23 in a dose or time dependent manner before being collected for immunoblotting. (E) Beas2b cells were transfected with control siRNA or Fbxo48 siRNA for 48 h before switching to glucose-free media. Cells were then exposed to Compound 23 in a dose dependent manner before being collected for immunoblotting. (F) Compound 23 chemical structure.
Compound 1 was studied in in vitro assays using Beas2B cells. […]
Compound 23 was tested in in vitro studies using Beas2B cells and compared with metformin.

[1] = compound 18 h, then LPS 10 ng/ml 4 h

| Compound | IC50 (pAMPK) | lavage cell counts (mice) | lavage cytokine release (mice) | lavage protein concentration (mice) | pAMPK levels within the lung tissue (mice; immunoblotting) | LPS induced IL-1 release from PBMCs (PBMC cells; compound 4 h, then LPS 10 ng/ml 2 h) | concentration effectively increasing phospho-AMPK and downstream p-ACC levels (phospho-AMPK; Beas2b, with or without glucose, 18 h) | IL-1b in media (PBMC cells; [1]) | TNF in media (PBMC cells; [1]) | level of AMPK T172D phospho mimic mutant (phospho-AMPK; Beas2b transfected with T172D mutant, glucose-free media) | pAMPK and pACC levels after Fbxo48 knockdown (phospho-AMPK; Beas2b, Fbxo48 siRNA 48 h, glucose-free media) | activity on pAMPK compared to Compound 12 (phospho-AMPK; Beas2b, glucose-free media, 6 h and 18 h) | concentration range increasing pAMPK phosphorylation and downstream substrate ACC phosphorylation (phospho-AMPK; Beas2b, glucose-free media, 18 h) |
| --- | --- | --- | --- | --- | --- | --- | --- | --- | --- | --- | --- | --- | --- |
| OC(COc1ccc(F)cc1)CN(Cc1ccccc1)Cc1ccccc1 (centres unmarked) [Compound 12] | < 1 µg/mL | significantly decreased | significantly decreased | significantly decreased | effectively increased | potently inhibit | 100 to 500 nM | – | – | – | – | – | – |
| OC(COc1ccc(C(F)(F)F)cc1)CN(Cc1ccccc1)Cc1ccccc1 (centres unmarked) [Compound 23] | < 1 µg/mL | substantially decreased | effectively reduces | substantially decreased | – | – | – | dose dependently decreased | dose dependently decreased | drastically increases | not able to further activate the pathway | comparable or slightly improved activity | submicromolar |
